Experimental data reported in patent publication US6127342A, “Method for preventing or treating a lung disease caused by active oxygen and free radical injury” (Teijin Limited, priority 1991, dated 2000).

Columns and labels:
Type in all cases: in vivo
[1] = system: liver ischemia-reperfusion model using rats; assay: Serum AST, ALT and LDH after 1 hour of reperfusion; conditions: rat; 50 mg/kg i.v.
Procedure: (§1) Male Wister rats weighing 250-300 g were fasted with free access to water 24 hours before the experiment. Seventy-two rats were divided into three groups of 24 animals each, i.e., the control group, the GSH administration group and the γ-GCE-administration group. Each rat was anesthetized by intraperitoneal administration of 40 mg/0.8 ml/kg of sodium pentobarbital, and the femoral vein was cannulated. In the GSH group and the γ-GCE group, 50 mg/kg of GSH or γ-GCE respectively were administered intravenously. Physiological saline was then infused for volume replacement in each group, as a continuous intravenous infusion at a rate of 0.8 ml/hr with an injection pump throughout the experiment. Thirty minutes after starting injection of physiological saline, the abdomon was opened by a midline incision and the liver hilus was exposed. According to the method described by Hasselgren, et al. in J. Surg. Res., Vol. 34, pp. 409-414, 1984, all vessels to the left and median lobes of the liver, more specifically, hepatic artery, portal vein and the bile duct, were clamped to produce an ischemic state for 2 hours. Since blood vessels to the remaining parts of the liver were not occluded by this method, poral stasis could be avoided which was of special relevance for circulation stability in rats. Thereafter, occlusion of all vessels was released by removing the clamp to allow reperfusion for 1 hour. The abdominal walls were closed during ischemia and reperfusion.
(§2) Using 18 rats in each group, the livers of 6 animals from each group were removed before ischemia, after 2 hours of ischemia, and after 1 hour of reperfusion, respectively. A portion of the liver from each animal was rapidly frozen in liquid nitrogen and used for measurement of glutathione,adenine nucleotides and lipid peroxide. From the remaining portion of the liver, mitochondria was immediately extracted according to the method described by Hogeboom and Schneider in the J. Biol. Chem., Vol. 172, p. 619, 1948. In other experiments, immediately after starting reperfusion, blood from the hepatic vein was collected using 6 rats from each group. These blood samples were then used to measure leaked adenine nucleotides. In addition, after 1 hour of said reperfusion, blood samples were also drawn, which were then used to measure the activity of the leaked liver cell enzymes.
(§3) Evaluation of ischemia-reperfusion injury was performed by measuring liver tissue (1) mitochondrial function, (2) glutathione concentration, (3) adenine nucleotides concentration, and (4) lipid peroxide concentration, as well as liver tissue derived (5) adenine nucleotides concentration in the hepatic vein immediately after starting reperfusion, and (6) liver cell enzyme activities in the blood after 1 hour of reperfusion. More specifically, the mitochondrial function in (1) was measured according to the method described by Chance, et al. in Adv. Enzymol., Vol. 17, p. 65, 1956. In addition, the quantitative determination of glutathione in (2) was performed using the same method as Experiment 1 on supernatant obtained by adding 10 vol/g of tissue weight of 2.5% (w/v) sulfosalicylic acid dihydrate aqueous solution to the liver tissue followed by homogenization and centrifugation. In addition, the quantitative determination of adenine nucleotides in (3) was performed by neutralizing the perchloric acid extract of the liver tissue with potassium hydroxide followed by removal of the precipitate and applying to an ion exchange HPLC column according to the method described by Sugino, et al. in J. Chromatogr., Vol. 361, pp. 427-431, 1986. In addition, the measurement of lipid peroxide in (4) was performed according to the thiobarbiturate method described by Ohkawa, et al. in Anal. Biochem., Vol. 95, p. 351, 1979. […]

[2] = system: liver ischemia-reperfusion model using rats; assay: Adenine nucleotides concentration in liver tissue during liver ischemia-reperfusion; conditions: rat, 50 mg/kg i.v.; for effect on restoration of liver ATP following reperfusion: 1 hour reperfusion
Procedure: as §1, §2, §3

[3] = system: liver tissue mitochondria; assay: Liver tissue mitochondrial function in liver ischemia-reperfusion; conditions: rat, 50 mg/kg i.v. before ischemia, FIGS. 2A and 2B; for effect on recovery of liver mitochondrial function during reperfusion: 1 h reperfusion; for effect on reduction of liver mitochondrial St. III O2 caused by ischemia: 2 h ischemia
Procedure: as §1, with “reperfusion. […]” for “reperfusion.”
as §3, with “Enzymol., Vol. 17, p. 65, 1956.” left out, “1986.” for “1986. In addition, the measurement of lipid peroxide in (4) was performed according to the thiobarbiturate method described by Ohkawa, et al. in Anal. Biochem., Vol. 95, p. 351, 1979.”

[4] = system: cardiac muscle mitochondria; assay: Glutathione content of cardiac muscle mitochondria after coronary ischemia-reperfusion; conditions: dog; for effect on reduction of mitochondrial glutathione during reperfusion / Glutathione content of cardiac muscle mitochondria, GSH + GSSG, normal area / Glutathione content of cardiac muscle mitochondria, GSH, normal area / Glutathione content of cardiac muscle mitochondria, GSSG, normal area / Glutathione content of cardiac muscle mitochondria, GSH + GSSG, ischemic or reperfused area / Glutathione content of cardiac muscle mitochondria, GSH, ischemic or reperfused area / Glutathione content of cardiac muscle mitochondria, GSSG, ischemic or reperfused area: 10 mg/kg i.v. just before reperfusion; for Glutathione content of cardiac muscle mitochondria, GSH + GSSG, normal area / Glutathione content of cardiac muscle mitochondria, GSH, normal area / Glutathione content of cardiac muscle mitochondria, GSSG, normal area / Glutathione content of cardiac muscle mitochondria, GSH + GSSG, ischemic or reperfused area / Glutathione content of cardiac muscle mitochondria, GSH, ischemic or reperfused area / Glutathione content of cardiac muscle mitochondria, GSSG, ischemic or reperfused area: 2 h ischemia / 1 h reperfusion
Procedure: After anesthetizing 52 adult mongrel dogs of either sex weighing ca. 10 kg by intraperitoneal administration of 50 mg/kg of sodium pentobarbital, breathing tubes were immediately intubated endotracheally and artificial ventilation was continued using a Harvard ventilator. Electrocardiogram electrodes were attached, and monitoring and recording were continued throughout the experiment. Following insertion of cannulas in the right femoral vein and right femoral artery, the cannulas were used for continuous intravenous drip of physiological saline to replenish water or administration of the test preparation, and monitoring of arterial blood pressure, respectively. After performing left thoracotomy in the fourth or fifth intercostal space, the pericardium was torn to expose the heart. Ischemia was induced by ligating the left anterior descending coronary artery immediately distal to the first diagonal branch, while reperfusion was performed by subsequently removing that ligation.
The animals were divided into four groups. Group 1 (n=9) was subjected to ischemia for 2 hours, group 2 (n=17) was subjected to ischemia for 2 hours followed by reperfusion for 1 hour, group 3 (n=10) was subjected to ischemia for 2 hours followed by reperfusion for 1 hour plus intravenous injection of 10 mg/kg of γ-GCE just before reperfusion, and group 4 (n=16) was subjected to 2 hours of ischemia followed by 1 hour of reperfusion plus intravenous injection of 10 mg/kg of reduced glutathione (GSH, control drug) just before reperfusion.
Evaluation of ischemia-reperfusion injury was performed, following completion of ischemia-reperfusion, by measuring (1) glutathione content of mitochondria, and (2) mitochondrial function, and so on, at the ischemic or reperfused area and the normal area of the heart. Mitochondria was obtained by removing the heart immediately after the end of ischemia or reperfusion, washing with cold physiological saline, promptly cutting out the ischemic or reperfused area and the normal area, and immediately performing preparation from the respective area according to the method described by Hatefi, et al. in Arch. Biochem. Biophys., Vol. 94, pp. 148-155, 1961.
The glutathione content of the mitochondria was measured by applying the method described by Tietze in Anal. Biochem., Vol. 27, pp. 502-522, 1969 to the supernatant obtained by immediately adding 1/10 vol of 27.5% (w/v) sulfosalicylic acid dihydrate aqueous solution to the prepared mitochondria suspension followed by protein denaturation and centrifugation. Evaluation of mitochondrial function was performed according to the method described by Sugiyama, et al. in Am. Heart J., Vol. 100, pp. 829-837, 1980, by polarographically measuring respiratory ability using an oxygen electrode and determining the rate of oxygen consumption is state III (St. III O2) and the respiratory control index (RCI).

SMILES | Serum ALT after 1 hour of reperfusion [1] [IU/L] | Serum AST after 1 hour of reperfusion [1] [IU/L] | Serum LDH after 1 hour of reperfusion [1] [IU/L] | effect on leakage of liver cell enzymes into the blood following 1 hour of reperfusion [1] | effect on restoration of liver ATP following reperfusion [2] | Liver tissue ADP, after 1 hour reperfusion [2] [μmol/g wet liver weight] | Liver tissue AMP, after 1 hour reperfusion [2] [μmol/g wet liver weight] | Liver tissue ATP + ADP + AMP, after 1 hour reperfusion [2] [μmol/g wet liver weight] | Liver tissue ATP, after 1 hour reperfusion [2] [μmol/g wet liver weight] | Liver tissue ADP, after 2 hours ischemia [2] [μmol/g wet liver weight] | Liver tissue AMP, after 2 hours ischemia [2] [μmol/g wet liver weight] | Liver tissue ATP + ADP + AMP, after 2 hours ischemia [2] [μmol/g wet liver weight] | Liver tissue ATP, after 2 hours ischemia [2] [μmol/g wet liver weight] | Liver tissue ADP, before ischemia [2] [μmol/g wet liver weight] | Liver tissue AMP, before ischemia [2] [μmol/g wet liver weight] | Liver tissue ATP + ADP + AMP, before ischemia [2] [μmol/g wet liver weight] | Liver tissue ATP, before ischemia [2] [μmol/g wet liver weight] | effect on recovery of liver mitochondrial function during reperfusion [3] | effect on reduction of liver mitochondrial St. III O2 caused by ischemia [3] | effect on reduction of mitochondrial glutathione during reperfusion [4] | further results
N[C@@H](CCC(=O)N[C@@H](CS)C(=O)NCC(=O)O)C(=O)O [GSH, reduced glutathione, reference compound] | 2337 ± 571 | 3914 ± 1102 | 26435 ± 12191 | did not significantly mitigate the leakage | did not show any promotive effects on the restoration of ATP | 0.38 | 0.15 | 1.66 | 1.13 | 0.13 | 0.73 | 0.90 | 0.04 | 0.65 | 0.18 | 3.40 | 2.57 | did not show any protective effects whatsoever | did not show any protective effects whatsoever | no such effects were observed | Glutathione content of cardiac muscle mitochondria, GSH + GSSG, normal area [4]: 3.94 ± 0.33; Glutathione content of cardiac muscle mitochondria, GSH, normal area [4]: 3.67 ± 0.37; Glutathione content of cardiac muscle mitochondria, GSSG, normal area [4]: 0.27 ± 0.08; Glutathione content of cardiac muscle mitochondria, GSH + GSSG, ischemic or reperfused area [4]: 2.44 ± 0.57; Glutathione content of cardiac muscle mitochondria, GSH, ischemic or reperfused area [4]: 2.17 ± 0.52; Glutathione content of cardiac muscle mitochondria, GSSG, ischemic or reperfused area [4]: 0.27 ± 0.09
CCOC(=O)[C@H](CS)NC(=O)CC[C@H](N)C(=O)O [γ-GCE, γ-L-glutamyl-L-cysteine ethyl ester] | 924 ± 330 | 2071 ± 625 | 14678 ± 2763 | significantly reduced leakage of enzymes from liver cells | significantly promoted restoration of ATP following reperfusion | 0.38 | 0.12 | 2.21 | 1.70 | 0.17 | 0.87 | 1.10 | 0.06 | 0.57 | 0.13 | 3.39 | 2.69 | significantly promoted recovery of mitochondrial function during reperfusion | significantly suppressed reduction of St. III O2 caused by ischemia | significantly suppress further reduction of glutathione during the reperfusion | effect on the reduction of liver ATP caused by ischemia ([2]; 2 hours ischemia): did not show any effects on the reduction of ATP caused by ischemia; mitochondrial glutathione levels (GSH, GSH+GSSG) of reperfused area relative to normal area after reperfusion ([4]; 10 mg/kg just before reperfusion): 85-88%; Glutathione content of cardiac muscle mitochondria, GSH + GSSG, normal area [4]: 4.06 ± 0.52; Glutathione content of cardiac muscle mitochondria, GSH, normal area [4]: 3.68 ± 0.54; Glutathione content of cardiac muscle mitochondria, GSSG, normal area [4]: 0.38 ± 0.09; Glutathione content of cardiac muscle mitochondria, GSH + GSSG, ischemic or reperfused area [4]: 3.57 ± 0.46; Glutathione content of cardiac muscle mitochondria, GSH, ischemic or reperfused area [4]: 3.12 ± 0.40; Glutathione content of cardiac muscle mitochondria, GSSG, ischemic or reperfused area [4]: 0.45 ± 0.15
